# Patent US20240327400A1, “COMPOSITIONS AND METHODS FOR MODULATING HAIR GROWTH” (The Regents of the University Of California, priority 2020, published 2024)
# Test system: Lactate dehydrogenase (LDH) activity
# Assay: LDH activity assay on human skin lysate (Ldh platereader protocol)
# Type: biochemical
# Settings: human skin lysate pretreated with benzil prior to incubation with MPC inhibitors; FIG. 7
# Procedure: Human skin samples were homogenized with a Benchmark BeadBlaster24R in 500 μl of Pierce RIPA Lysis and Extraction buffer (Thermo Scientific Cat No: 89900), centrifuged at 10,000 g for 15 minutes at 4° C. to remove insoluble material, and the soluble fraction quantified by Pierce BCA assay (Thermo Scientific Cat No: 23225). Lactate dehydrogenase activity was quantified using a Sigma Aldrich Lactate Dehydrogenase Activity Assay Kit (Catalog No: MAK066). Briefly, 10 μg of sample was loaded per well in a 96 well plate along with 20 uM of Pelage compounds and pre-incubated at 37° C. for 30 minutes before addition of Ldh assay master mix. Using a Biotek Synergy HTX multi-mode reader, the plate was incubated at 37° C. and absorbance measurements at 450 nm (A450) were taken every 3 minutes for 30 minutes. The LDH activity of each sample was quantified by calculating the AA450 over time.
smiles,measurement,value
N#C/C(=C\c1cn(-c2ccccc2)c2ccccc12)C(=O)O [UK5099],effect on LDH activity after pretreatment with a carboxylesterase inhibitor (benzil),no effect
